From ChEMBL document CHEMBL1201862, “PubChem BioAssay data set” (2004)
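Protocol summary: plate cells (96-well), add compound at 5 concentrations, incubate 48 h, interpolate endpoints linearly. GI50 = concentration required for 50% inhibition of growth.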 Calls of active or inactive are those of the source. Cut-off read from the data, not from the text of the source: active = GI50 up to about 1.1 µM and inactive = higher.

Experiments:
Experiment in all cases: NCI-60 cell line screen, 48 h
OVCAR-4 = system: OVCAR-4
OVCAR-3 = system: OVCAR-3
Hs-578T = system: Hs-578T
NCI-H460 = system: NCI-H460
T47D = system: T47D
U-251 = system: U-251
NCI-H23 = system: NCI-H23
786-0 = system: 786-0
M14 = system: M14
SW-620 = system: SW-620
HCT-15 = system: HCT-15
RPMI-8226 = system: RPMI-8226
MDA-MB-435 = system: MDA-MB-435
MCF7 = system: MCF7
MDA-MB-231 = system: MDA-MB-231
Malme-3M = system: Malme-3M
HL-60 = system: HL-60
HCC 2998 = system: HCC 2998
SN12C = system: SN12C
A498 = system: A498
SK-OV-3 = system: SK-OV-3
SNB-19 = system: SNB-19
BT-549 = system: BT-549
MDA-N = system: MDA-N
DU-145 = system: DU-145
RXF 393 = system: RXF 393
SK-MEL-28 = system: SK-MEL-28
HOP-62 = system: HOP-62
NCI/ADR-RES = system: NCI/ADR-RES
LOX IMVI = system: LOX IMVI
SF-295 = system: SF-295
HT-29 = system: HT-29
COLO 205 = system: COLO 205
CCRF-CEM = system: CCRF-CEM
MOLT-4 = system: MOLT-4
UO-31 = system: UO-31
ACHN = system: ACHN
OVCAR-8 = system: OVCAR-8
UACC-62 = system: UACC-62
NCI-H522 = system: NCI-H522
KM12 = system: KM12
PC-3 = system: PC-3
SK-MEL-2 = system: SK-MEL-2
EKVX = system: EKVX
HCT-116 = system: HCT-116
K562 = system: K562
OVCAR-5 = system: OVCAR-5
A549 = system: A549
SK-MEL-5 = system: SK-MEL-5
CAKI-1 = system: CAKI-1
SR = system: SR
IGROV-1 = system: IGROV-1
SNB-75 = system: SNB-75
SF-268 = system: SF-268
NCI-H226 = system: NCI-H226

Measured: GI50

CC/C=C/C[C@H](O)[C@H]1C[C@H]2O[C@H](CC(=O)OC)C[C@H]2O1
> 100 µM: HCT-15
inactive: OVCAR-4 > 100 µM | OVCAR-3 > 100 µM | Hs-578T > 100 µM | NCI-H460 > 100 µM | T47D > 100 µM | U-251 > 100 µM | NCI-H23 > 100 µM | 786-0 > 100 µM | M14 > 100 µM | SW-620 > 100 µM | RPMI-8226 > 100 µM | MDA-MB-435 > 100 µM | MCF7 > 100 µM | MDA-MB-231 > 100 µM | Malme-3M > 100 µM | HL-60 > 100 µM | HCC 2998 > 100 µM | SN12C > 100 µM | A498 > 100 µM | SK-OV-3 > 100 µM | SNB-19 > 100 µM | BT-549 > 100 µM | MDA-N > 100 µM | DU-145 > 100 µM | RXF 393 > 100 µM | SK-MEL-28 > 100 µM | HOP-62 > 100 µM | NCI/ADR-RES > 100 µM | LOX IMVI > 100 µM | SF-295 > 100 µM | HT-29 > 100 µM | COLO 205 > 100 µM | CCRF-CEM > 100 µM | MOLT-4 > 100 µM | UO-31 > 100 µM | ACHN > 100 µM | OVCAR-8 > 100 µM | UACC-62 > 100 µM | NCI-H522 > 100 µM | KM12 > 100 µM | PC-3 > 100 µM | SK-MEL-2 > 100 µM | EKVX > 100 µM | HCT-116 > 100 µM | K562 > 100 µM | OVCAR-5 > 100 µM | A549 > 100 µM | SK-MEL-5 > 100 µM | CAKI-1 > 100 µM | SR > 100 µM | IGROV-1 > 100 µM | SNB-75 > 100 µM | SF-268 > 100 µM | NCI-H226 > 100 µM

C=C(CCOC)CCC1CCCCC/C1=N\N(C)C (stereo not given)
> 100 µM: HCT-15
inactive: OVCAR-4 > 100 µM | OVCAR-3 > 100 µM | Hs-578T > 100 µM | NCI-H460 > 100 µM | T47D > 100 µM | U-251 > 100 µM | NCI-H23 > 100 µM | 786-0 > 100 µM | M14 > 100 µM | SW-620 > 100 µM | RPMI-8226 > 100 µM | MDA-MB-435 > 100 µM | MCF7 > 100 µM | MDA-MB-231 > 100 µM | Malme-3M > 100 µM | HL-60 > 100 µM | HCC 2998 > 100 µM | SN12C > 100 µM | A498 > 100 µM | SK-OV-3 > 100 µM | SNB-19 > 100 µM | BT-549 > 100 µM | MDA-N > 100 µM | DU-145 > 100 µM | RXF 393 > 100 µM | SK-MEL-28 > 100 µM | HOP-62 > 100 µM | NCI/ADR-RES > 100 µM | LOX IMVI > 100 µM | SF-295 > 100 µM | HT-29 > 100 µM | COLO 205 > 100 µM | CCRF-CEM > 100 µM | MOLT-4 > 100 µM | UO-31 > 100 µM | ACHN > 100 µM | OVCAR-8 > 100 µM | UACC-62 > 100 µM | NCI-H522 > 100 µM | KM12 > 100 µM | PC-3 > 100 µM | SK-MEL-2 > 100 µM | EKVX > 100 µM | HCT-116 > 100 µM | K562 > 100 µM | OVCAR-5 > 100 µM | A549 > 100 µM | SK-MEL-5 > 100 µM | CAKI-1 > 100 µM | SR > 100 µM | IGROV-1 > 100 µM | SNB-75 > 100 µM | SF-268 > 100 µM | NCI-H226 > 100 µM
